Structures can show the parent of a compound that is named as a salt.
Tested on: A549 human lung epithelium cell line
Assay: RANTES production in response to TNF-α from A549 cells
Type: cell-based
Settings: Homo sapiens, A549, A549 cells, 100 ng/ml TNF-α, read-out: Cellular activity grade (A549) (Cellular IC50)
Method: [The Measurement of RANTES Production in Response to TNF-α from A549 Cells]
(1) Preparation of A549 Cells
• The A549 human lung epithelium cell line (ATCC […]) was maintained in Dulbecco's modified Eagle's medium (D-MEM, Nikken Biomedical Institute) supplemented with 10% FCS (Gibco), 100 U/ml penicillin, 100 μg/ml streptomycin, and 2 mM glutamine (culture medium). Forty thousand (4×10^4) cells (80 μl/well) were seeded in each well of 96 well flat-bottom tissue culture plate (Falcon #3072). The plate was allowed to stand for 2 hrs, thus the cells were adhered to the bottom of each well. To the each well was added 10 μl vehicle (1% DMSO), serial dilutions of test compounds in 1% DMSO, or 5 nM Dexamethasone in 1% DMSO as a reference. The mixture (90 μl/well) was incubated for 1 hr at 37° C. After 1 hr, 1 μg/ml TNF-α (10 μl) in culture medium was added to the mixture to obtain 100 μl of reaction mixture. The reaction mixture was cultured for 24 hrs to stimulate the cells with 100 ng/ml TNF-α. Cells with vehicle without TNF-α stimulation were also prepared. (2) Measurement of RANTES Production • Then the concentration of RANTES released from the cells in the supernatants of each well was determined using a quantitative sandwich enzyme immunoassay technique. First, 2 μg/ml mouse anti-huRANTES mAb (R&D Systems, #mAb678) in PBS buffer (pH 7.4, 100 μl) was put in each well of 96-well NUNC fluoro plate (Nalge Nunc, New York USA) (Final 200 ng/well) and the plate was allowed to stand for overnight at 4° C. to be coated by the antibody. Each well of the plate was then washed with 350 μl wash buffer (0.05% Tween-20, 0.85% NaCl, and 25 mM Tris/HCl pH7.4) for three times. Blocking buffer containing 1% BSA (Sigma 99% pure, 100 g), 5% sucrose (Nacalai tesque, 99% pure, 500 g), and 0.02% azide (Nacalai tesque, 100%, 500 g) were added (200 μl) to each well and then the plate was allowed to stand for 4 hours to stabilize the coated antibody. Next, 50 μl supernatants of cell culture prepared in (1) above were put in each well of the 96-well NUNC fluoro plate with coated antibody. Recombinant Human RANTES (Pepro Tech, Inc. #300-06) was used as the standard for the determination of RANTES production (linear range between 1 and 10 ng/ml). Eu-labelled mouse anti-huRANES mAb (60 ng/ml: R&D Systems, #mAb278) in PBS supplemented by 1% BSA and 0.05% Tween 20 was added (50 μl) to each well. The reaction mixtures were incubated at room temperature for 4 hrs. After washing with wash buffer (0.05% Tween-20, 0.85% NaCl, and 25 mM Tris/HCl pH7.4, 350 μl/well) for 5 times with the use of a Sera Washer (Bio-Tech, #MW-96R), the enhancement solution (DELFIA, #1244-405, 100 μl/well) was added to each well. The plate was incubated for 10 minutes at room temperature with moderate shaking. Fluorescent intensity was measured using a DELFIA fluorimeter (Wallac). Excitation was performed at 340 nm and emission was measured at 615 nm. [The Measurement of TNF-α Production in Response to LPS from Peripheral Blood Mononuclear Cells (PBMC)] (1) Preparation of PBMC • Human PBMC were prepared by first obtaining blood from healthy donors and isolating the cells from the blood. The isolation was done by Ficoll gradient-centrifugation method using Ficoll Pacque (Pharmacia #17-1440-02). Within three hours from donation, the isolated PBMC was used. After three times washing with PBS, PBMC were resuspended with RPMI 1640 (Nikken BioMedical Institute) supplemented with 10% FCS (Gibco), 100 U/ml penicillin, 100 μg/ml streptomycin, and 2 mM glutamine (culture medium). The cells (1×10^5 in 150 μL/well) were seeded in each well of 96 well flat-bottom tissue culture plate (Falcon #3072). To the each well was added 20 μl vehicle (1% DMSO), serial dilutions of test compounds in 1% DMSO, or 250 nM Dexamethasone in 1% DMSO as a reference. The mixture (170 μl/well) was incubated for 1 hr at 37° C. After 1 hr, 20 ng/ml LPS (30 μl) in culture medium was added to the mixture to obtain 200 μl of reaction mixture. […]

SMILES	IC50
O=C1NCc2c(C3CCCNC3)cc(-c3c(O)cccc3OCC3CC3)nc2N1 (stereo not drawn) [Example 22-2, 7-[2-(cyclopropylmethoxy)-6-hydroxyphenyl]-5-(3-piperidinyl)-3,4-dihydro-1H-pyrido[2,3-d]-pyrimidin-2-one hydrochloride]	< 1000 nM
Nc1nc(-c2c(O)cccc2OCC2CC2)cc(C2CCNCC2)c1COc1ccccc1 [Example 21-3, 2-[6-amino-5-(phenoxymethyl)-4-(4-piperidinyl)-2-pyridinyl]-3-(cyclopropylmethoxy)phenol hydrochloride]	< 1000 nM
CNC(=O)c1c(C2CCCNC2)cc(-c2c(O)cccc2OCC2CC2)nc1N (stereo not drawn) [Example 8-3, 2-amino-6-[2-(cyclopropylmethoxy)-6-hydroxyphenyl]-N-methyl-4-(3-piperidinyl)nicotinamide hydrochloride]	< 1000 nM
N#Cc1c(C2CCCNC2)cc(-c2ccccc2O)nc1Nc1ccccc1 (stereo not drawn) [Example 4-4, hydrochloride]	1000 to 10000 nM
O=C(Nc1cc2c(C3CCCNC3)cc(-c3c(O)cccc3OCC3CC3)nc2[nH]c1=O)c1ccccc1 (stereo not drawn) [Example 29-2, N-[7-[2-(cyclopropylmethoxy)-6-hydroxyphenyl]-2-oxo-5-(3-piperidinyl)-1,2-dihydro-1,8-naphthyridin-3-yl]benzamide hydrochloride]	1000 to 10000 nM
CC(C)(C)OC(=O)c1c(C2CCCNC2)cc(-c2ccccc2O)nc1N (stereo not drawn) [Example 9-1, tert-butyl 2-amino-6-(2-hydroxyphenyl)-4-(3-piperidinyl)nicotinate hydrochloride]	1000 to 10000 nM
CNC1CCCC(c2cc(-c3ccccc3O)nc(N)c2C#N)C1 (stereo not drawn) [Example 1-5, 2-amino-6-(2-hydroxyphenyl)-4-[3-methylamino]cyclohexyl]nicotinonitrile hydrochloride]	1000 to 10000 nM
N#Cc1c(C2CCCNC2)cc(-c2c(O)cccc2OCc2ccccc2)nc1N (stereo not drawn) [Example 2-2, 2-amino-6-[2-(benzyloxy)-6-hydroxyphenyl]-4-(3-piperidinyl)nicotinonitrile hydrochloride]	< 1000 nM
O=C1NCc2c(C3CCCNC3)cc(-c3ccccc3O)nc2N1 (stereo not drawn) [Example 22-1, 7-(2-hydroxyphenyl)-5-(3-piperidinyl)-3,4-dihydropyrido[2,3-d]pyrimidin-2(1H)-one hydrochloride]	1000 to 10000 nM
CC(=O)Nc1cc2c(C3CCCNC3)cc(-c3c(O)cccc3OCC3CC3)nc2[nH]c1=O (stereo not drawn) [Example 29-3, N-[7-[2-(cyclopropylmethoxy)-6-hydroxyphenyl]-2-oxo-5-(3-piperidinyl)-1,2-dihydro-1,8-naphthyridin-3-yl]acetamide hydrochloride]	< 1000 nM
CS(=O)(=O)NC(=O)c1cc2c(C3CCCNC3)cc(-c3c(O)cccc3OCC3CC3)nc2[nH]c1=O (stereo not drawn) [Example 31-2, N-{[7-[2-(cyclopropylmethoxy)-6-hydroxyphenyl]-2-oxo-5-(3-piperidinyl)-1,2-dihydro-1,8-naphthyridin-3-yl]carbonyl}methanesulfonamide hydrochloride]	1000 to 10000 nM
CN1CCCC(c2cc(-c3c(O)cccc3OCC3CC3)nc(N)c2C#N)C1 (stereo not drawn) [Example 3-1, 2-amino-6-[2-(cyclopropylmethoxy)-6-hydroxyphenyl]-4-(1-methyl-3-piperidinyl)nicotinonitrile]	< 1000 nM
Nc1nc(-c2c(O)cccc2OCC2CC2)cc(C2CCCNC2)c1C(=O)O (stereo not drawn) [Example 9-3, 2-amino-6-[2-(cyclopropylmethoxy)-6-hydroxyphenyl]-4-(3-piperidinyl)nicotinic acid hydrochloride]	> 10000 nM
N#Cc1c(C2CCCC(C(=O)O)C2)cc(-c2ccccc2O)nc1N (stereo not drawn) [Example 1-8, 3-[2-amino-3-cyano-6-(2-hydroxyphenyl)-4-pyridinyl]cyclohexanecarboxylic acid]	> 10000 nM
O=c1[nH]c(=O)c2c(C3CCCNC3)cc(-c3ccccc3O)nc2[nH]1 (stereo not drawn) [Example 7-2, 7-(2-hydroxyphenyl)-5-(3-piperidinyl)pyrido[2,3-d]pyrimidine-2,4(1H,3H)-dione hydrochloride]	> 10000 nM

— patent US6984649B1, “Pyridine derivatives” (Bayer Aktiengesellschaft, priority 2000, dated 2006)
